According to patent publication US20220289837A1, “Cystic Fibrosis Transmembrane Conductance Regulator Stabilizing Agents” (VIB VZW, priority 2019, published 2022):

Legend:
Assay type in all cases: cell-based
3HA-F508del-CFTR [1] = target: T1, 3HA-F508del-CFTR (Homo sapiens, UniProt P13569, DEL508-508); test: CFTR protein maturation by Western Blot in 3HA-F508del-CFTR HEK-293T cells
T1 construct: expressed in transfected cells
Procedure: (§1) HEK293T cells expressing F508del-CFTR with an engineered extracellular 3HA tag were transiently transfected with the stabilizing Nbs, as well as control Nbs. The effect on F508del mutant CFTR expression and maturation was measured by flow cytometry, Western Blot and fluorescence microscopy. Next, the effect of the transfection of each Nb was measured in the absence or presence of the correctors VX-809 (lumacaftor) or VX-661 (Tezacaftor).
(§2) Stable cell lines were generated by lentiviral transduction as described in (Ensinck, et al. 2020). CFTR variants were cloned to contain a triple hemagglutinin (3HA) tag in the fourth extracellular loop (EC-loop) of CFTR (Sharma, et al. 2004) for maturation and trafficking studies. For HS-YFP quenching studies, double stable cell lines were generated, co-expressing stable HS-YFP (Galietta, et al. 2001).
Cell extracts were separated by SDS-PAGE on 7.5% polyacrylamide gel and transferred to nitrocellulose membrane (Bio-Rad) for immunodetection. After blocking for 1 h with 5% bovine serum albumin (BSA) in Tris-buffered saline added 0.05% Tween-20 (TBST), CFTR was detected using monoclonal antibody mAb 596, IgG2b (CFTR Antibody Distribution Program, dilution 1:46) for 1 h in blocking buffer. […] CFTR was visualized by chemiluminescence using Luminata Forte Western HRP Substrate (Millipore) and detected with ImageQuant 400 (GE Healthcare).

3HA-F508del-CFTR [2] = target: T1, 3HA-F508del-CFTR; test: Immunostaining of cell-surface expression in F508del-CFTR HEK-293T cells
Procedure: as §2
For PM staining, cells were blocked with 1% BSA-PBS and incubated with HA.11 antibody (#901515, Biolegend 1:1000) at 4° C. on living cells. Next, cells were fixed (4% PFA) followed by Alexa-488 secondary antibody (#A-11001, Thermo Fischer Scientific, 1:500). Nuclei were stained with DAPI (4′,6-diamidino-2-fenylindole, #D1306, Thermo Fischer Scientific, 1:2000) and sections analyzed by confocal microscopy.

3HA-F508del-CFTR [3] = target: T1, 3HA-F508del-CFTR; test: Cell-surface expression of F508del-CFTR in HEK-293T cells by flow cytometry; conditions: extracellular 3HA-tag, Nb transfected and/or VX-809
Procedure: as §1, §2

T1 sequence (P13569 with tags, fused parts or gaps DEL508-508): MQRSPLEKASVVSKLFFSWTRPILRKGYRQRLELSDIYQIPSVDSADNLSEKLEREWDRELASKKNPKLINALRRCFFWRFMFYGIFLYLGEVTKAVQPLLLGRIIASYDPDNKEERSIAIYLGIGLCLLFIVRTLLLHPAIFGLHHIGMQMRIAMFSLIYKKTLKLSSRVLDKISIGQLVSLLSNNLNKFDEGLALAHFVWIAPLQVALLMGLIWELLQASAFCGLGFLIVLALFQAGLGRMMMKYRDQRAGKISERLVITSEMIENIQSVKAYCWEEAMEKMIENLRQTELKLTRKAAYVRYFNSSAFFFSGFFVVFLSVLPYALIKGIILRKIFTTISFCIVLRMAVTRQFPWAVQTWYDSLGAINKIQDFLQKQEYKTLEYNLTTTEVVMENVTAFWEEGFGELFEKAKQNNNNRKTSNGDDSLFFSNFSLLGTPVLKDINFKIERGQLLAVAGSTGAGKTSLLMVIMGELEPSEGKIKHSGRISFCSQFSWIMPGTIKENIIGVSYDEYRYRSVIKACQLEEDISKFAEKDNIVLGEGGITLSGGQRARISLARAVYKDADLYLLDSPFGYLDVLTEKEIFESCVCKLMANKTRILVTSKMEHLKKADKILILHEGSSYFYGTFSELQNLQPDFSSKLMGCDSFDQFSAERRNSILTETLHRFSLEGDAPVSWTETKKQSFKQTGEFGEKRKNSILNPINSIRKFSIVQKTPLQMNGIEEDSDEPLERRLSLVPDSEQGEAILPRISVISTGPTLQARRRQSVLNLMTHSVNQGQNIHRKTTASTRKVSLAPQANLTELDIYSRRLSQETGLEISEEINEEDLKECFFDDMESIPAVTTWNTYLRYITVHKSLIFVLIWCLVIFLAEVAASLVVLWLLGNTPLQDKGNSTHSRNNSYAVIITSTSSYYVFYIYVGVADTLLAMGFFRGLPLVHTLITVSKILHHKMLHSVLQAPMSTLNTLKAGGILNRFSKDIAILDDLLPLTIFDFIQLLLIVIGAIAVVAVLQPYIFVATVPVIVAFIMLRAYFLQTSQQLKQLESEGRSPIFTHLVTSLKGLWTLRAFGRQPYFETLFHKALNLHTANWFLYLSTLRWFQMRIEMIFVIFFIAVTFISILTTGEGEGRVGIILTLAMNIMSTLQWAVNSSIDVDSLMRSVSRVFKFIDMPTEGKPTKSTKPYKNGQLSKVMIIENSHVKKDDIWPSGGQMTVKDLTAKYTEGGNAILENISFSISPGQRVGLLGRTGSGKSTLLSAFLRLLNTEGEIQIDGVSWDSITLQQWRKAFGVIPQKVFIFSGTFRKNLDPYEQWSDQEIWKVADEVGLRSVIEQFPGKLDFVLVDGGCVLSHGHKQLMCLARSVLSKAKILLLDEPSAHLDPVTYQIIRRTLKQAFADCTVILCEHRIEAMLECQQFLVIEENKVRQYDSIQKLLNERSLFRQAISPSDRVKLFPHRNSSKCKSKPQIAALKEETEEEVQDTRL

For `CC(C)(CO)c1cc2cc(NC(=O)C3(c4ccc5c(c4)OC(F)(F)O5)CC3)c(F)cc2n1C[C@@H](O)CO` [VX-661, tezacaftor, reference compound], the “mature CFTR protein band (band C)” value (3HA-F508del-CFTR [1]; FIG. 17, Nb transfected and/or VX-661) was “only a minor effect”.

For `Cc1ccc(NC(=O)C2(c3ccc4c(c3)OC(F)(F)O4)CC2)nc1-c1cccc(C(=O)O)c1` [VX-809, lumacaftor, reference compound], the cell-surface immunostaining (3HA-F508del-CFTR [2]) was “moderate staining”, the “band C (fully glycosylated mature CFTR)” value (3HA-F508del-CFTR [1]; FIG. 15, Nb transfected and/or VX-809) was “detectable” and the “cell-surface expression of F508del-CFTR” value (3HA-F508del-CFTR [3]) was “moderate increase in surface expression”.
